# Ends that are not written are not given here. * marks the point of attachment. Decanoyl = CCCCCCCCCC(=O)*; OPH = not defined here; CH2Cl = ClC*
# Tested on: lung epethalial and macrophage cells exposed to anthrax toxin (PA and FP59)
# Type: cell-based
row,Substance,Protein Synthesis Inferred From ^35S incorporation
1,decanoyl RVKR-CMK (Decanoyl-RVKR-CH2Cl),86.9 ± 9.9%
2,PGluArgValArgArgOPH (PERVRR-{OPH}; not fully specified (some residues); printed as PGluArgValArgArgOPH; reading uncertain) [ERVRR-OPH],70.9 ± 8.7%

# Reference: patent US8263563B2, “Furin inhibitors” (priority 2004, dated 2012)
